# System: SIVmac251.30.SG3
# Experiment: Neutralization assay, control virus SIVmac251.30.SG3
# Type: cell-based, SIV
# Settings: Simian immunodeficiency virus; SIVmac251.30.SG3, clade NA
# Description: Neutralization was measured using single-round-of-infection HIV-1 Env-pseudoviruses and TZM-bl target cells (ARP Cat No. #8129)[44],[45]. Compounds were prepared at 400 μM with 4% DMSO (dimethyl sulfoxide) in PBS (phosphate-buffered saline) and diluted 20 times as the starting concentration for serial dilution in the neutralization assays. Pseudoviruses of ten strains from HIV-1 clades A, B, and C were incubated with serial dilutions of drug compounds, then added to TZM-bl target cells which have a luciferase reporter gene. After incubation at 37 °C for 2 days, infection of target cells was measured by luciferase activity. Neutralization curves were fit by nonlinear regression using a five-parameter hill slope equation[45].
smiles,measurement,value
COc1cnc(-c2csc(C(=O)NCCO)n2)c2[nH]cc(C(=O)C(=O)N3CCC(=C(C#N)c4ccccc4)CC3)c12 [BMS-818251],IC50,> 20 µM

# From PMC6318274, “Lattice engineering enables definition of molecular features allowing for potent small-molecule inhibition of HIV-1 entry” (Nature Communications, 2019)
